Several values for one entry are separate records, joined by “and”; a condition that tells them apart may be missing. Equal entries are not always repeated. Where two headings read alike, the source gives them in different places.
Assays:
Assay type in all cases: cell-based, human
[1] = test system: ML-2; experiment: Acetylome analysis (Acetyl-K enrichment, LC-MS/MS); conditions: for Acetyl-K sites regulated, Number, Histone proteins / Acetyl-K sites regulated, Number, Non-histone proteins / Acetyl-K sites regulated, Percentages, Histone proteins / Acetyl-K sites regulated, Percentages, Non-histone proteins: Fig 4G; for Acetyl-K sites: Down-regulated, % / Acetyl-K sites: Down-regulated, Number / Acetyl-K sites: Non-regulated, % / Acetyl-K sites: Non-regulated, Number / Acetyl-K sites: Quantified (total number) / Acetyl-K sites: Regulated, % / Acetyl-K sites: Regulated, Number / Acetyl-K sites: Up-regulated, % / Acetyl-K sites: Up-regulated, Number: ML-2 (Fig 4C); for Acetyl-K sites, Down-regulated / Acetyl-K sites, Up-regulated: Fig. 4C; for regulated Acetyl-K sites in Histone proteins / regulated Acetyl-K sites in Non-histone proteins: Fig. 4G; for percentage of Acetyl-K sites regulated: of 3618 quantified; for Number of proteins with 1 Acetyl-K site per protein / Number of proteins with 2 Acetyl-K sites per protein / Number of proteins with 3 Acetyl-K sites per protein / Number of proteins with 4 Acetyl-K sites per protein: distribution of acetylated sites in the acetylated proteins (Fig 4D)
Description: Cellular pellets were lysed for 15 min at 95 °C in 4% SDS, 100 mM Hepes/NaOH pH 8.0, containing 5 mM sodium butyrate and 5 mM Nicotinamide. After cooling down, lysates were incubated at 25 °C with 10 units of DNAse (Benzonase, Merk) and sonicated for 15 min in a Bioruptor for DNA shearing. Protein concentration was determined using microBCA, using BSA as standard. Samples were digested using on-bead protein aggregation capture (PAC) with ReSyn Biosciences MagReSyn® Hydoxyl microparticles (ratio Protein/Beads 1:5) in an automated King Fisher instrument (Thermo). Proteins were digested for 16 h at 37 C with LysC/Trypsin mix at a protein: enzyme ratio of 1:100 in 50 mM TEAB pH 8.0 (Trypsin Sequence grade, Sigma; LysC, Wako). The resulting peptides were speed-vac dried and dissolved in 100 µL of 200 mM HEPES pH 8.5.
Peptides (500 µg) were labeled with Thermo Scientific TMTpro 18plex™ Isobaric reagents for 1 h at 25 C. Reaction was quenched by adding 5% hydroxylamine for 15 min. Samples were pooled at a 1:1 ratio based on the total peptide amount, determined by comparing overall signal intensities on a regular LC-MS/MS run. The final mixture was desalted using a 500 mg Sep-Pak C18t cartridge (Waters) and dried prior to high pH reverse phase HPLC pre-fractionation.
Labeled peptides were fractionated offline through a high pH reverse phase chromatography using an Ultimate 3000 HPLC system equipped with a sample collector. Briefly, peptides were dissolved in 1200 µL of Buffer A (10 mM NH4OH) and loaded onto a XBridge BEH130 C18 column (3.5 µm, 250 mm length and 3.5 mm ID, Waters). Buffer B was composed of 10 mM NH4OH in 90% CH3CN. The following gradient was used at a flow rate of 500 µL/min: 0-50 min 0-25% B, 50-56 min 25-60% B, 56-57 min 60-90% B. One-minute fractions (500 µL) from […] were collected and neutralized with 10% formic acid. Based on the UV absorbance at 280 nm, 95% of the volume of 40 fractions was pooled in 5 fractions for Acetyl-Lysine enrichment. The 5% of these fractions was kept for proteome analysis. Pooled fractions were snap-frozen and lyophilized.
Lyophilized peptides (1.5 mg) from each pool were immuno-affinity purified with the PTMScan HS Acetyl-Lysine Motif (Ac−K) kit (Cell Signaling Technology). For each pool, three consecutive immuno-purifications (IPs) were performed using the manufacturer’s protocol in an automated King Fisher instrument (Thermo). Elution of purified peptides was performed in two consecutive steps of 50 μl of 0.15% TFA. Samples were desalted with C18 stage tips and eluates were vacuum dried and resuspended in 0.1% formic acid for subsequent analysis by LC−MS/MS.
LC-MS/MS was done by coupling an UltiMate 3000 RSLCnano LC system to an Orbitrap Exploris 480 mass spectrometer (Thermo Fisher Scientific). Samples were loaded into a trap column (Acclaim™ PepMap™ 100 C18 LC Columns 5 µm, 20 mm length) for 3 min at a flow rate of 10 µL/min in 0.1% FA. Peptides were then transferred to an EASY-Spray PepMap RSLC C18 column (Thermo) (2 µm, 75 µm x 50 cm) operated at 45 °C and separated using a 90 min effective gradient (buffer A: 0.1% FA; buffer B: 100% ACN, 0.1% FA) at a flow rate of 250 nL/min. The gradient used was, from 4% to 6% of buffer B the first 2 min, from 6% to 33% B the next 58 min, plus 10 additional minutes at 98% B.
The mass spectrometer was operated in a data-dependent mode, with an automatic switch between MS and MS/MS scans using a top 15 method. (Intensity threshold ≥ 1e4, dynamic exclusion of 20 sec and excluding charges unassigned, +1 and ≥ +7). MS spectra were acquired from 350 to 1500 m/z with a resolution of 60,000 FMHW (200 m/z). Ion peptides were isolated using a 0.7 Th window and fragmented using higher-energy collisional dissociation (HCD) with a normalized collision energy NCE of 36. MS/MS spectra were acquired with a fixed first mass of 120 m/z and a resolution of 45,000 FMHW (200 m/z). […]

[2] = test system: MOLM-13; experiment: Cell proliferation assay: GI50
Description: (§1) Cell proliferation was analyzed using the CellTiter 96 Aqueous One Solution Cell Proliferation Assay (Promega, Madison, WI). This is a colorimetric method for determining the number of viable cells in proliferation. For the assay, suspension cells were cultured in triplicate at a density of 1 × 10^6 cells/mL in 96-well plates (100.000 cells/well, 100 µL/well), using only the 60 inner wells to avoid any border effects. […] Then, the cells were incubated with 100 μL/well of medium and 20 μL/well of CellTiter 96 Aqueous One Solution reagent for 1–3 h. […] The background absorbance was measured in wells with only cell line medium and solution reagent. First, the average of the absorbance from the control wells was subtracted from all other absorbance values. Data were calculated as the percentage of total absorbance of treated cells/absorbance of non-treated cells. The GI50 values of the different compounds were determined using non-linear regression plots made with GraphPad Prism v5 software.

[3] = test system: ML-2; experiment: Cell proliferation assay: GI50
Description: as §1

[4] = test system: HL-60; experiment: Cell proliferation assay: GI50
Description: as §1

[5] = test system: MV4-11; experiment: Cell proliferation assay: GI50
Description: as §1

[6] = ML-2, first (superseded) acetylome experiment, peer review file
[7] = Homo sapiens, MOLM-13, MOLM-13, replicates 1-3
[8] = Homo sapiens, ML-2, ML-2, replicates 1-3
[9] = HL-60, replicates 1-3, read-out: GI50
[10] = Homo sapiens, HL-60, 48 h, 48 h, read-out: HL-60 GI50
[11] = Homo sapiens, HL-60, HL-60, replicates 1-3, read-out: GI50
[12] = Homo sapiens, MV4-11, MV4-11, replicates 1-3

Row | SMILES | Number of proteins with >5 Acetyl-K sites per protein [1] | Acetyl-K sites regulated, Number, Histone proteins [1] | Acetyl-K sites regulated, Number, Non-histone proteins [1] | Acetyl-K sites regulated, Percentages, Histone proteins [1] | Acetyl-K sites regulated, Percentages, Non-histone proteins [1] | Acetyl-K sites: Down-regulated, % [1] | Acetyl-K sites: Down-regulated, Number [1] | Acetyl-K sites: Non-regulated, % [1] | Acetyl-K sites: Non-regulated, Number [1] | Acetyl-K sites: Quantified (total number) [1] | Acetyl-K sites: Regulated, % [1] | Acetyl-K sites: Regulated, Number [1] | GI50 [2, 7] | GI50 ([2]; MOLM-13, replicates 1-3) | GI50 [3, 8] | GI50 ([3]; ML-2, replicates 1-3) | GI50 [4, 9] | GI50 [4, 11] | GI50 ([5]; Homo sapiens, MV4-11, 48 h) | GI50 ([5]; MV4-11, replicates 1-3) | other results
1 | COc1cc2nc(-c3ccc(C)o3)cc(NCC3CCN(c4ncc(C(=O)NO)cn4)CC3)c2cc1OC [CM-444, 2-[4-[[[6,7-dimethoxy-2-(5-methyl-2-furyl)-4-quinolyl]amino]methyl]-1-piperidyl]pyrimidine-5-carbohydroxamic acid] | 14 | 58 | 766 | 7 | 93 | 11.9% | 429 | 77.2% | 2794 | 3618 | 22.8% | 824 | 1370 nM | 1120 nM and 883 nM | 988 nM | 1150 nM and 956 nM | 987 nM and 1020 nM | 1260 nM | 621 nM | 765 nM and 641 nM | Acetyl-K sites: Up-regulated, % [1]: 10.9%; Acetyl-K sites: Up-regulated, Number [1]: 395; fraction of regulated acetylation sites upregulated ([1]; ML-2, 25% GI50, 12 h): 47.9%; Acetyl-K sites, Down-regulated ([1]; ML-2, 25% GI50, 12 h): 429; Acetyl-K sites, Up-regulated ([1]; ML-2, 25% GI50, 12 h): 395; regulated Acetyl-K sites in Histone proteins ([1]; ML-2, 25% GI50, 12 h): 58; regulated Acetyl-K sites in Non-histone proteins ([1]; ML-2, 25% GI50, 12 h): 766; percentage of Acetyl-K sites regulated ([1]; ML-2, 25% GI50, 12 h): 22.8%; acetyl K-sites regulated specifically by the compound [1, 6]: 202; fraction of regulated acetylation sites upregulated [1, 6]: 49.7%; Number of proteins with 1 Acetyl-K site per protein [1]: 421; Number of proteins with 2 Acetyl-K sites per protein [1]: 79; Number of proteins with 3 Acetyl-K sites per protein [1]: 29; Number of proteins with 4 Acetyl-K sites per protein [1]: 14; GI50 [4, 10]: 1090 nM; GI50 [5, 12]: 458 nM
2 | CC1=C(/C=C/C(C)=C/C=C/C(C)=C/C(=O)O)C(C)(C)CCC1 [ATRA, all-trans retinoic acid, reference compound] | – | – | – | – | – | – | – | – | – | – | – | – | > 10000 nM | > 10000 nM | > 10000 nM | > 10000 nM | > 10000 nM | > 10000 nM | > 10000 nM | > 10000 nM | GI50 ([2]; Homo sapiens, MOLM-13, 48 h): > 10000 nM; GI50 ([3]; Homo sapiens, ML-2, 48 h): > 10000 nM; GI50 ([4]; Homo sapiens, HL-60, 48 h, read-out: GI50): > 10000 nM; GI50 [5, 12]: > 10000 nM
3 | COc1cc2nc(-c3cc(C)oc3C)cc(NCC3CCN(c4ncc(C(=O)NO)cn4)CC3)c2cc1OC [CM-1758, 2-[4-[[[2-(2,5-dimethyl-3-furyl)-6,7-dimethoxy-4-quinolyl]amino]methyl] -1-piperidyl]pyrimidine-5-carbohydroxamic acid] | 14 | 55 | 681 | 7.5 | 92.5 | 10.9% | 395 | 79.7% | 2882 | 3618 | 20.3% | 736 | 412 nM | 685 nM and 576 nM | 869 nM | 812 nM and 849 nM | 1020 nM and 1180 nM | 1360 nM | 292 nM | 498 nM and 125 nM and 252 nM | Acetyl-K sites: Up-regulated, % [1]: 9.4%; Acetyl-K sites: Up-regulated, Number [1]: 341; fraction of regulated acetylation sites upregulated ([1]; ML-2, 25% GI50, 12 h): 46.3%; Acetyl-K sites, Down-regulated ([1]; ML-2, 25% GI50, 12 h): 395; Acetyl-K sites, Up-regulated ([1]; ML-2, 25% GI50, 12 h): 341; regulated Acetyl-K sites in Histone proteins ([1]; ML-2, 25% GI50, 12 h): 55; regulated Acetyl-K sites in Non-histone proteins ([1]; ML-2, 25% GI50, 12 h): 681; percentage of Acetyl-K sites regulated ([1]; ML-2, 25% GI50, 12 h): 20.3%; acetyl K-sites regulated specifically by the compound [1, 6]: 80; fraction of regulated acetylation sites upregulated [1, 6]: 61.2%; Number of proteins with 1 Acetyl-K site per protein [1]: 381; Number of proteins with 2 Acetyl-K sites per protein [1]: 73; Number of proteins with 3 Acetyl-K sites per protein [1]: 31; Number of proteins with 4 Acetyl-K sites per protein [1]: 6; GI50 ([2]; Homo sapiens, MOLM-13, 48 h): 558 nM; GI50 ([3]; Homo sapiens, ML-2, 48 h): 844 nM; GI50 [4, 10]: 1190 nM

Reference: article PMC11219871, “Epigenetic-based differentiation therapy for Acute Myeloid Leukemia” (Nature Communications, 2024)
